According to patent US20120016010A1, “RNA Interference Mediated Inhibition of BTB and CNC Homology 1, Basic Leucine Zipper Transcription Factor 1 (BACH1) Gene Expression Using Short Interfering Nucleic Acid (siNA)” (Merck Sharp & Dohme Corp, priority 2009, published 2012):

How the values were obtained:
Bach1 mRNA = test: Initial screen: Bach1 mRNA knock-down in mouse NIH 3T3 cells (96-well transfection, quantitative RT-PCR); format: cell-based; settings: mouse NIH3T3 cells, n = 2, 24 hrs post-transfection, protocol 10 nM siNA
[1] = system: human GAPDH mRNA transcript; test: GAPDH specificity screen in human A549 cells; format: cell-based; settings: Table 5; 1 nM siNA, STAT 4 as endogenous control, relative to universal control siNA
Protocol: To evaluate the expression level and % knock-down of GAPDH, STAT 4 gene was used as an endogenous control to calculate ΔCt for siNA treated samples and the universal control:
STAT 4 gene was selected as an internal normalizer based on its relatively consistent expression across 49 test samples in three independent experiments. ΔΔCt, Relative expression level and % KD were calculated as described above.
The specificity of these siNAs was also assessed. These siNAs were tested at a lower concentration (1 nM versus the original screening concentration of 10 nM) to determine the effect of the Bach1 siNAs on the mRNA transcript of human GAPDH.

Male CD rats = settings: rat, in vivo, 10 mg/kg
Protocol: Male CD rats were anaesthetised and intra-tracheally dosed with 200 ul of either vehicle, Poly I:C (1 mg/kg) or siNA (10 mg/kg). 24 hours later the rats were euthanized and the lungs lavaged 3 times with 5 ml of heparinised PBS. Total and differential cell counts as well as cytokine analysis were performed on the lung lavage fluid.

HMOX-1 mRNA = HMOX-1 mRNA increase in response to Bach1 siNA in human A549 cells; format: cell-based; settings: 24 hrs post-transfection, mean ± SD
Protocol: A series of probes and primers were used to detect the various mRNA transcripts of the genes of Bach1, HMOX-1, and GAPDH in mouse and human cell lines. The assays were performed on an ABI 7900 instrument, according to the manufacturer's instructions. A TaqMan Gene Expression Master Mix (provided in the Cells-to-CTT™, Applied Biosystems, Cat # 4399002) was used. The PCR reactions were carried out at 50° C. for 2 min, 95° C. for 20 min followed by 40 cycles at 95° C. for 15 secs and 60° C. for 1 min
All calculations of IC50s were performed using SigmaPlot 10.0 software. The data were analyzed using the sigmoidal dose-response (variable slope) equation for simple ligand binding. In all of the calculations of the % knock-down, the calculation was made relative to the normalized level of expression of the gene of interest in the samples treated with the non-targeting control (Ctrl siNA) unless otherwise indicated.
For the statistical measures of significance for the HMOX-1 mRNA increase in response to Bach1 siNA treatment, a two-tailed Student's t-test on the dCt values for wells treated with the non-targeting control siNA compared with the dCt values for wells treated with the highest concentration of each respective active siNA, was performed.
Various siNAs were also evaluated for their potential to knock-down Bach1 protein. As no validated reagents were available to directly track changes in protein expression, this was done by assessing the increase in HMOX-1 mRNA in response to increasing doses of the active Bach1 siNAs.
The siNAs were tested at a single time point post-transfection (24 hrs). This was the time point at which the Bach1 mRNA levels had previously been determined. The non-targeting control siNA was also tested on each plate of samples and was found, across the six plates to show a maximum of 29±12% increase in the level of HMOX-1.
The comparison of the maximum percentage increase in HMOX-1 and EC50 and the maximum percentage decrease of Bach1 and IC50 are shown in Table 6. Table 6 also includes the measure of statistical significance for the increase in HMOX-1 mRNA levels in response to treatment with the respective Bach1 siNA.

| Substance | % KD (Bach1 mRNA) | % KD GAPDH [1] | cytokine production (Male CD rats) | inflammatory cell (neutrophils and macrophages) influx (Male CD rats) | EC50 (HMOX-1 mRNA) | Maximum % Hmox-1 Increase in DRC (HMOX-1 mRNA) |
| --- | --- | --- | --- | --- | --- | --- |
| 29947-DC (sense GGAAUCCUGCUUUCAGUUUTT; antisense AAACUGAAAGCAGGAUUCCUU; inverted abasic caps (B), 2'-modified nucleotides, further chemistry not given here) | 46 ± 5.8% | −15 ± 29% | no significant increases | no significant increases | 37.7 ± 21.5 pM | 187 ± 71% |
| 29956-DC (sense GUCUGAGUGUCCGUGGUUATT; antisense UAACCACGGACACUCAGACUU; inverted abasic caps (B), 2'-modified nucleotides, further chemistry not given here) | −14.5 ± 8.4% | −18 ± 15% | – | – | 30.9 ± 19.9 pM | 308 ± 87% |
| 29957-DC (sense GCAGUUACUUCCACUCAAGTT; antisense CUUGAGUGGAAGUAACUGCUU; inverted abasic end caps, TT overhangs, modified nucleotides, further chemistry not given here) | 42.4 ± 1.2% | −10 ± 9% | – | – | 33.6 ± 20 pM | 213 ± 29% |
| 29961-DC (sense CUACACUGCUAAACUGAUUTT; antisense AAUCAGUUUAGCAGUGUAGUU; inverted abasic end caps, TT overhangs, modified nucleotides, further chemistry not given here) | −23.5 ± 4.6% | 7 ± 7% | no significant increases | no significant increases | 10.4 ± 10 pM | 262 ± 87% |
| 29964-DC (sense GAUUUGCAGGUGAUGUUAATT; antisense UUAACAUCACCUGCAAAUCUU; inverted abasic end caps, TT overhangs, modified nucleotides, further chemistry not given here) | 19.6 ± 3.9% | 14 ± 2% | no significant increases | no significant increases | 21.8 ± 15.5 pM | 240 ± 30% |
| 29984-DC (sense GUUAAAGGAUUUGAACCUUTT; antisense AAGGUUCAAAUCCUUUAACUU; inverted abasic end caps, TT overhangs, modified nucleotides, further chemistry not given here) | 50.5 ± 0.8% | – | – | – | – | – |
| 29988-DC (sense AUUUGAACCUUUAAUUCAGTT; antisense CUGAAUUAAAGGUUCAAAUUU; inverted abasic end caps, TT overhangs, modified nucleotides, further chemistry not given here) | 71.3 ± 8.9% | 23 ± 5% | no significant increases | no significant increases | 38.2 ± 29.8 pM | 190 ± 62% |
